Reference: patent US8404898B2, “Integrated process for the preparation of polybenzimidazole precursors” (E I du Pont de Nemours and Company, priority 2008, dated 2013)

Experiment: solubility of TAT salt in water
Format: physicochemical
Conditions: water at 25° C.
Method: The reaction mixture containing the precipitated TAT salt is then cooled to about 5° C. to about 15° C. and stirred, then filtered. The TAT salt is then washed 44. […] Using an agitated filter unit during the wash procedures can allow for a reduction of the wash volumes. Under such circumstances, using small amounts of cold (e.g., about 5° C.) water instead of the aqueous acid would be effective; cold water would be used because of lower solubility of the TAT salt in cold water versus, e.g., room temperature. For example, the solubility of TAT.4HCl in water at 25° C. is about 16 wt %.

Q: For `Cc1c(N)c(N)cc(N)c1N` [TAT.4HCl, 2,3,5,6-tetraminotoluene], which solubility in water is on record?
A: about 16 wt %
